# Earlier results, collected in patent US9125936B2, “Ginger extract for the protection of stem cells” (Symrise AG, priority 2013, dated 2015).
# Conditions: water (20° dH) at 20° C.; solid active agent
structure (smiles),measurement,value
"Nc1nc2c(ncn2COCCO)c(=O)[nH]1 [Acyclovir, 2-Amino-1,9-dihydro-9-((2-hydroxyethoxy)methyl)-6H-Purin-6-one]",solubility in water,less than 5 g/L
